{
  "source": "patent US20110045032A1",
  "about": "(priority 2001, published 2011)",
  "format_in_all_cases": "in vivo",
  "key": {"[1]": {"tested_on": "ragweed-sensitized mice", "test": "BAL cell populations after methacholine challenge (Example 28)", "details": "Ragweed alone 13.8%; P<0.05", "description": "(§1) Two groups of mice were sensitized with two intraperitoneal injections and one intranasat administration of ragweed allergen (Ambrosia artemistifolia) on days 0, 4 and 11 respectively. A third group was treated similarly with saline to serve as non-allergic controls. The next two days, the treatment group animals were exposed to DHEA-S delivered as an aerosol (5 mg/ml suspension in saline, 2 ml nebulized) using the whole-body plethysmograph system (Buxco Electronics, Inc., Sharon, Conn.) and a DeVilbiss ultrasonic nebulizer. Twenty-four hours after the last drug exposure, mice were challenged with increasing concentrations of methacholine to determine bronchial hyperresponsiveness and then lavaged to determine relative changes in cell populations in BAL fluid."}, "[2]": {"test": "Acute inhalation toxicity in rats", "details": "rat, in vivo, inhaled; preclinical toxicology studies; not achieved at this dose; read-out: maximum tolerated dose", "description": "(§2) Other findings were minor in nature and detailed in the reports that follow. Therefore, nebulization of an aqueous solution was determined to be feasible but not practical due to the inability to achieve a sufficient safety factor to support clinical trials."}, "[3]": {"tested_on": "rats", "test": "Acute inhalation toxicity in rats", "details": "inhalation", "description": "as §2"}, "[4]": {"tested_on": "dust mite-sensitized rabbits", "test": "Pulmonary function after allergen challenge, nebulized (Example 26)", "description": "(§3) This study defines the effect of 7 days of treatment with DHEA-S on allergen-induced bronchial hyperresponsiveness (BHR), early and late phase responses, and pulmonary inflammation in dust mite-sensitized rabbits. Baseline BHR and inflammation were first determined. DHEA-S (5 mg/ml, 2 ml nebulized) or an equivalent volume of vehicle was delivered once per day via nebulization through a pediatric facemask covering the nose and mouth on days 1 through 7. On day 8, 24 hours after the last treatment, allergen challenge, pulmonary function testing and BALF were performed. On day 9, 24 hours after allergen challenge a histamine challenge was performed and the lungs removed for histology. The study includes 5 animals studied under a crossover design. There was a 3 week resting period between study arms and lungs were taken during the second treatment arm only. The treatment with DHEA-S led to the changes in the disease status of the animals described in the following paragraph.\nEffects on airway obstruction were measured by changes in dynamic compliance and total lung resistance in response to allergen challenge. Rabbits were monitored for 6 hours following allergen challenge and the values plotted against time. Changes in dynamic compliance were determined by the % change in compliance as compared to the animal's initial saline value recorded prior to challenge. Changes in response to allergen and/or treatment were calculated using the AUC where an AUC unit is defined as % change×hour. Treatment with DHEA-S attenuated the drop in airway compliance following allergen challenge by 62% as compared to vehicle treatment. […] Variability during the early phase kept differences in AUC between the vehicle and drug treatment groups from being significant when analyzed using a paired t-test."}, "[5]": {"tested_on": "dust mite-sensitized rabbits", "test": "BALF inflammation, DHEA-S vs Pulmicort vs saline (Example 27)", "description": "(§4) This follow-up study compared the effects of DHEA-S and Puimicort® (budesonide inhalation suspension) on allergen-induced bronchial hyperresponsiveness (BHR) to histamine and pulmonary inflammation in dust mite-sensitized rabbits. The study included 18 animals divided into 3 treatment groups: saline, DHEA-S, and Puimicort. The animals were treated for once per day for 5 consecutive days via nebulization through a pediatric facemask covering the nose and mouth. Treatments were DHEA-S, 10 mg/day (5 mg/ml), Pulmicort Respules, 0.5 mg/day (0.5 mg/2 ml, note: this is the standard human dose) or saline (2 ml). A dust mite challenge was performed on day 4, and development of airway inflammation was assessed 6 hours and 30 hours after dust mite challenge. Histamine sensitivity was assessed 30 hours after challenge (day 5) and the lungs removed for histology."}, "[6]": {"tested_on": "dust mite-sensitized rabbits", "test": "BALF cell count, nebulized (Example 26)", "description": "as §3"}, "[7]": {"tested_on": "dust mite-sensitized cynomolgus monkeys", "test": "BALF cell count after allergen challenge (Example 24)", "details": "for total leukocytes in BALF: DHEA-S treatment group", "description": "This study defines the effect of 5 days of treatment with DHEA-S on allergen-induced early phase response, and pulmonary inflammation in dust mite-sensitized cynomolgus monkeys. Baseline parameters were measured the week prior to treatment. DHEA-S (5 mg/ml, 2 ml nebulized) or an equivalent volume of saline was delivered once per day via nebulization (Pari LC+) through a canine facemask covering the nose and mouth on days 1 through 5. Allergen challenge and pulmonary function testing were performed on day 3 several hours after drug treatment, and broncho-alveolar lavage fluid BALF) was collected 48 hours post-challenge. The study includes 6 animals studied under a crossover design with a minimum of 4 weeks rest between study arms. The treatment with DHEA-S led to the following changes in the disease status of the animals: […]"}, "[8]": {"tested_on": "ragweed-sensitized mice", "test": "Bronchial hyperresponsiveness to methacholine, whole-body plethysmograph (Example 28)", "description": "as §1\nThe ragweed only group responded in a dose-related fashion with increasing Penh value over the range of methacholine tested and a mean area under the curve of 7488.8."}, "[9]": {"tested_on": "dust mite-sensitized rabbits", "test": "Bronchial hyperresponsiveness to histamine (Example 27)", "description": "as §4\nThere was an increase in the area under the curve of 17.42, which means the animals became more sensitive to histamine following allergen exposure. […] The resulting change in the area under the curve was −4.52 and −6.70 for DHEA-S and Puimicort, respectively, this means that animals treated with DHEA-S or Pulmicort were less sensitive to histamine following allergen exposure."}, "[10]": {"details": "6 hours after allergen challenge, compared to Pulmicort"}, "[11]": {"details": "6 hours after allergen-challenge, compared to vehicle control"}, "[12]": {"details": "48 hours after allergen challenge, compared to saline"}},
  "data": [
    {"smiles": "CC12CCC3C(CC=C4CC(OS(=O)(=O)[O-])CCC43C)C1CCC2=O.[Na+]", "note": "(stereo not shown) [DHEA-S, Dehydroepiandrosterone sulfate]", "values": [
      {"measurement": "percent neutrophils in BAL", "setting": "[1]", "result": 3.2, "unit": "%"},
      {"measurement": "MTD", "setting": "[2]", "result": "> 11", "unit": "mg/kg/day"},
      {"measurement": "maximum tolerated dose", "setting": "[3]", "result": "could not be achieved"},
      {"measurement": "adverse effects to the respiratory tract", "setting": "[3]; up to the maximum feasible dose", "result": "did not produce any adverse affects"},
      {"measurement": "total AUC for airway resistance", "setting": "[4]; 6 hours, control 315", "result": 377},
      {"measurement": "PC50 histamine", "setting": "[4]; 48 hours after the last administration, control 0.84", "result": 0.86, "unit": "mg/mL"},
      {"measurement": "tolerance of pulmonary function testing and histamine challenges", "setting": "[4]; 7 days of treatment via facemask, qualitative", "result": "better than vehicle-treated animals"},
      {"measurement": "effect on airway resistance changes", "setting": "[4]; in the 6 hours after aerosol dust mite challenge", "result": "no significant effect"},
      {"measurement": "attenuation of the drop in airway compliance following allergen challenge", "setting": "[4]; nebulized 5 mg/ml, 2 ml once per day, 7 days, compared to vehicle treatment", "result": 62, "unit": "%"},
      {"measurement": "nasal congestion following histamine and dust mite challenges", "setting": "[4]; rabbit, in vivo", "result": "no evidence of nasal congestion"},
      {"measurement": "number of eosinophils in BALF", "setting": "[5]; 6 hours after allergen challenge", "result": "tended to decrease"},
      {"measurement": "decrease of epithelial shedding", "setting": "[5]; [10]", "result": 54, "unit": "%"},
      {"measurement": "reduction of number of neutrophils in the BALF", "setting": "[5]; [10]", "result": 91, "unit": "%"},
      {"measurement": "reduction of cellular influx of cells into the BALF", "setting": "[5]; 6 hours after allergen challenge, compared to Pulmicort, DHEA-S 10 mg/day nebulized, 5 days", "result": 62, "unit": "%"},
      {"measurement": "allergen-induced increase in neutrophils in BALF", "setting": "[5]; 6 hours or 24 hours after allergen challenge", "result": "no allergen-induced increase in neutrophils"},
      {"measurement": "number of eosinophils in BALF", "setting": "[5]; 24 hours after allergen challenge", "result": "significant elevation"},
      {"measurement": "total number of cells in the BALF compared to pre-challenge value", "setting": "[5]; six hours following allergen challenge", "result": "did not"},
      {"measurement": "reduction of eosinophilic inflammation compared with budesonide", "setting": "[5]; summary statement", "result": "at least equivalent to budesonide"},
      {"measurement": "reduction of neutrophilic inflammation compared with budesonide", "setting": "[5]; summary statement", "result": "far superior"},
      {"measurement": "lower numbers of eosinophils in BALF", "setting": "[6]; [11]", "result": 52, "unit": "%"},
      {"measurement": "lower numbers of macrophages in BALF", "setting": "[6]; [11]", "result": 68, "unit": "%"},
      {"measurement": "lower numbers of neutrophils in BALF", "setting": "[6]; [11]", "result": 69, "unit": "%"},
      {"measurement": "effect on BALF cell numbers", "setting": "[6]; 24 hours after dust mite challenge", "result": "not significant"},
      {"measurement": "decrease of inflammatory cell migration into the BAL fluid", "setting": "[6]; rabbit, in vivo", "result": 68, "unit": "%"},
      {"measurement": "eosinophils in BAL fluid", "setting": "[6]; six hours after dust mite challenge, vehicle 8", "result": "4 ×10^4 eosinophils/ml"},
      {"measurement": "third cell count in BAL fluid (cell type not given)", "setting": "[6]; six hours after dust mite challenge, vehicle 37", "result": "12 ×10^4"},
      {"measurement": "neutrophils in BAL fluid", "setting": "[6]; six hours after dust mite challenge, vehicle 94", "result": "29 ×10^4 neutrophils/ml"},
      {"measurement": "decrease of % eosinophils in BALF", "setting": "[7]; [12]", "result": "approximately 57%"},
      {"measurement": "decrease of percentage of neutrophils in BALF", "setting": "[7]; [12]", "result": 42, "unit": "%"},
      {"measurement": "eosinophil numbers in BALF less than saline", "setting": "[7]; 48 hours after allergen challenge, did not reach significance", "result": "approximately 64%"},
      {"measurement": "eosinophil numbers in BALF", "setting": "[7]; 48 hours after allergen challenge, saline 4.3±1.7", "result": "1.6±0.8 ×10^4 cells/ml"},
      {"measurement": "total leukocytes in BALF", "setting": "[7]; 48 hours after allergen challenge", "result": "39.4 ×10^4 cell/ml"},
      {"measurement": "total leukocytes in BALF", "setting": "[7]; before allergen challenge", "result": "34.5 ×10^4 cell/ml"},
      {"measurement": "absolute number of neutrophils in BALF", "setting": "[7]; after allergen challenge", "result": "9.7±2.2 ×10^4 cells/ml"},
      {"measurement": "neutrophil influx level vs pre-challenge", "setting": "[7]; cynomolgus monkey, in vivo", "result": "not significantly higher than pre-challenge levels"},
      {"measurement": "percentage of eosinophils before and after allergen challenge", "setting": "[7]; cynomolgus monkey, in vivo", "result": "not significantly different"},
      {"measurement": "reduction of area under the curve (AUC) of the methacholine response", "setting": "[8]; aerosol 5 mg/ml suspension, 2 ml nebulized, two days", "result": 46, "unit": "%"},
      {"measurement": "mean area under the curve of Penh response to methacholine", "setting": "[8]; ragweed only 7488.8, non-allergic saline 2646.8", "result": 4038.0},
      {"measurement": "change in the area under the histamine dose-response (resistance) curve", "setting": "[9]", "result": "−4.52"},
      {"measurement": "histamine response curve", "setting": "[9]; 30 hours after challenge", "result": "tended to shift the histamine response curve downward"}
    ]}
  ]
}
